The target of experiment [1] is T1, Histone acetyltransferase p300/Hypoxia-inducible factor 1-alpha (Homo sapiens, UniProt Q09472+Q16665). Kind of experiment: Inhibition of human C-terminal activation domain of HIF-1alpha/CH1 domain of GST-p300 interaction using F-786-826 by fluorescence polarization based assay. The class given is protein-complex assay. (In fluorescence polarisation assays a small probe gives low polarisation when free and higher when bound to something large.)

The target of experiment [2] is T1, Histone acetyltransferase p300/Hypoxia-inducible factor 1-alpha. Kind of experiment: Inhibition of human C-terminal activation domain of HIF-1alpha/CH1 domain of GST-p300 interaction using F-786-826 at 200 uM by fluorescence polarization based assay. The class given is protein-complex assay.
Target sequence in this assay (Q09472 2-2414 limits assumed): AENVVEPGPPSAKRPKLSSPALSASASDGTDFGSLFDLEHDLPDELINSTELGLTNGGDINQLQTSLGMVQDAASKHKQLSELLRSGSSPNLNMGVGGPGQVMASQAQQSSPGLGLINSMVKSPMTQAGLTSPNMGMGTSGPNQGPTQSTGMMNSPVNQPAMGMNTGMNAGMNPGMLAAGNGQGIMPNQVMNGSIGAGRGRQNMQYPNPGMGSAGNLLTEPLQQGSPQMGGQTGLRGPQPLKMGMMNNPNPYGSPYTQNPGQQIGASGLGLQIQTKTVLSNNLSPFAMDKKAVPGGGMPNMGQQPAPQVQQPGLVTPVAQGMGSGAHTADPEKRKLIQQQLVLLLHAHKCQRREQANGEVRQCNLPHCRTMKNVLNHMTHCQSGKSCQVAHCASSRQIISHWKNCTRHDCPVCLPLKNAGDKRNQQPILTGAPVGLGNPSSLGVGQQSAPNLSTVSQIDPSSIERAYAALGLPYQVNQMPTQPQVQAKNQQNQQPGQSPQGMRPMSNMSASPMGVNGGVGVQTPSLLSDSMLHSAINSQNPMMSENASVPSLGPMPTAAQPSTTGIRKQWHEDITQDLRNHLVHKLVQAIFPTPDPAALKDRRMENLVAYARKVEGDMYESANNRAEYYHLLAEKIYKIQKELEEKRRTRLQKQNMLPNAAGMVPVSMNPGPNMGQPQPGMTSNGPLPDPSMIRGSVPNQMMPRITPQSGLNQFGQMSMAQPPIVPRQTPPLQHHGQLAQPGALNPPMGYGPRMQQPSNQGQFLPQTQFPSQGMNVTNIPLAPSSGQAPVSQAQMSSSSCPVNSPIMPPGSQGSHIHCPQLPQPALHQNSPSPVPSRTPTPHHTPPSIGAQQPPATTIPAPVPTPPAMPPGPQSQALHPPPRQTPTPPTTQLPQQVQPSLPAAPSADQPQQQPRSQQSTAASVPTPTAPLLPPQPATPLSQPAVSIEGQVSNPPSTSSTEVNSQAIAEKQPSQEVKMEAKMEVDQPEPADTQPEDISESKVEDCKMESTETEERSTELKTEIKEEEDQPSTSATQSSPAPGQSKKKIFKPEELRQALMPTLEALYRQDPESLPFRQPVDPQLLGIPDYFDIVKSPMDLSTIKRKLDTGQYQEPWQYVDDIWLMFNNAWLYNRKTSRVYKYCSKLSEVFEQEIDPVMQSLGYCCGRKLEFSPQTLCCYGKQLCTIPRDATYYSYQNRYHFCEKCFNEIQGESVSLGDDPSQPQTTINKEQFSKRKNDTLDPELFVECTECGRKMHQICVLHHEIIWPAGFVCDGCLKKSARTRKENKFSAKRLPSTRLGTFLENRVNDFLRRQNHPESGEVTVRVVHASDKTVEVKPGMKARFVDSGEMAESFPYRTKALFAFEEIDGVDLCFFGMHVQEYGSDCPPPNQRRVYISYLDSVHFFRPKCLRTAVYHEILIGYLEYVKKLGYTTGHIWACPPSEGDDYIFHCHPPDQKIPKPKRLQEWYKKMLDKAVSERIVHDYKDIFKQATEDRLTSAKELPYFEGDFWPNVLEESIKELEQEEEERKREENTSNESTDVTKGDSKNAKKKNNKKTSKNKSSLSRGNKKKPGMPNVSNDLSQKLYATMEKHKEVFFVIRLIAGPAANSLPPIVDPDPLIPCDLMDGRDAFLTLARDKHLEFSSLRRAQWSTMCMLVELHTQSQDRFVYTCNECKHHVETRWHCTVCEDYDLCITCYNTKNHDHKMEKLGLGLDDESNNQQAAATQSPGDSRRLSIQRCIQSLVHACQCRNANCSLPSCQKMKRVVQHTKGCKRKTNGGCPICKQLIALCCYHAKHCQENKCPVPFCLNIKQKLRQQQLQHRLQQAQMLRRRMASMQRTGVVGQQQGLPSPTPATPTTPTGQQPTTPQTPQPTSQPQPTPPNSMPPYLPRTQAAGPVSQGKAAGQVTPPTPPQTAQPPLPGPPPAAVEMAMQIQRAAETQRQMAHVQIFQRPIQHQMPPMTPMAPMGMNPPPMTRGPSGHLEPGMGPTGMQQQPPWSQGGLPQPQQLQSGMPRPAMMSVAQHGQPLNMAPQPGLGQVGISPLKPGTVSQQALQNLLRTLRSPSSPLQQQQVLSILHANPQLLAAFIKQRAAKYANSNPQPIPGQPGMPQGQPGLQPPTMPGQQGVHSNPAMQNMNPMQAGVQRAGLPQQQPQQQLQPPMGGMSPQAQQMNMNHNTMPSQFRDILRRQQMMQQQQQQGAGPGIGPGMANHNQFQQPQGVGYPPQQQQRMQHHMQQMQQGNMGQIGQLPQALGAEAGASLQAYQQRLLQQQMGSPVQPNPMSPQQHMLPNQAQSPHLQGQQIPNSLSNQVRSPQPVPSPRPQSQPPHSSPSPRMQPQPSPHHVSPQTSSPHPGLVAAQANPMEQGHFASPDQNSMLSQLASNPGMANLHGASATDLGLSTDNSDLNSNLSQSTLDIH
Target sequence in this assay (Q16665 whole entry partner, the tested form may be a part): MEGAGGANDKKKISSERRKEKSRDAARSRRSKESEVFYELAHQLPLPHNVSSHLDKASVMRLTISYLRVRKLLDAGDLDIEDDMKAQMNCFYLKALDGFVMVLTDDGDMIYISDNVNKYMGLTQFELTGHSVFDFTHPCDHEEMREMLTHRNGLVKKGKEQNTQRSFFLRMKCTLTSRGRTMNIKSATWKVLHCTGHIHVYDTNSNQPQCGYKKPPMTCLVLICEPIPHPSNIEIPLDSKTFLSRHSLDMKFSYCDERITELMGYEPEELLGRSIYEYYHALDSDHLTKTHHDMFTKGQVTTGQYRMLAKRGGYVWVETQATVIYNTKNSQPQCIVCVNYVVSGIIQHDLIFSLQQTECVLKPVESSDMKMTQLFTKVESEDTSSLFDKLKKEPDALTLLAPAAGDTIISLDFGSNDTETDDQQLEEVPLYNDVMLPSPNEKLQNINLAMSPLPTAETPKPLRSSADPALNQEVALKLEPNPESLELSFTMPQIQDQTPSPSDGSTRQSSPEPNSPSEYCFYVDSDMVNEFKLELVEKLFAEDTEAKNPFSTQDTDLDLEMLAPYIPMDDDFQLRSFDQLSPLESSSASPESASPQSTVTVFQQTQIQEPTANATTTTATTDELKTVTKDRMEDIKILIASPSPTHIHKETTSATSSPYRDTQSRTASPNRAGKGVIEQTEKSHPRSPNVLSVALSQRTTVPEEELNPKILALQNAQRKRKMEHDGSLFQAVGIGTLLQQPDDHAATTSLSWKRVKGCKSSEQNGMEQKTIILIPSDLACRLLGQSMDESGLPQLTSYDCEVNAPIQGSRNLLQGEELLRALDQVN
Experiment [3] has as its target Hypoxia-inducible factor 1-alpha (Homo sapiens) (UniProt Q16665). Kind of experiment: Effect on stabilization of HIF-1alpha in deferoxamine treated human HeLa cells at 50 to 500 uM by Western blot analysis. The class given is cell-based.
Experiment [4] deals with T1, Histone acetyltransferase p300/Hypoxia-inducible factor 1-alpha. Nature of the experiment: Inhibition of deferoxamine-induced HIF-1alpha/resin-bound GST-p300 interaction human HeLa cells using coomasie blue staining by GST pull-down assay. The class given is cell-based.
Target sequence in this assay (Q09472 2-2414 limits assumed): as the sequence (Q09472 2-2414 limits assumed) above
Target sequence in this assay (Q16665 whole entry partner, the tested form may be a part): as the sequence (Q16665 whole entry partner, the tested form may be a part) above
In experiment [5] the target is Hypoxia-inducible factor 1-alpha (Homo sapiens) (UniProt Q16665). Nature of the experiment: Inhibition of HIF-1alpha in deferoxamine treated human HeLa cells assessed as reduction of VEGF mRNA level at 100 uM after 5 hrs by RT-PCR analysis. The class given is cell-based.
Hypoxia-inducible factor 1-alpha (Homo sapiens), sequence (Q16665 whole entry, looked up): as the sequence (Q16665 whole entry partner, the tested form may be a part) above
Experiment [6] has as its system HeLa. Kind of experiment: Cytotoxicity against human deferoxamine treated HeLa cells assessed as decrease of cell viability after 48 hrs by MTT assay. The class given is functional, cell-based. A general note: Formazan colour is commonly taken as a measure of viable cells.
In experiment [7] the test system is HeLa. Kind of experiment: Cytotoxicity against human deferoxamine treated HeLa cells assessed as decrease of cell viability after 24 hrs by MTT assay relative to control. The class given is functional.

For one compound, IC50, inhibition and Activity results are on record in ChEMBL document CHEMBL2057094, “Inhibition of VEGF transcription through blockade of the hypoxia inducible factor-1α-p300 interaction by a small molecule” (Bioorg Med Chem Lett, 2012).

Activity calls are given as the source filed them. The calls are words filed in the database; no cut-off is given here.

In general, IC50 refers to the point on the concentration scale where inhibition reaches its midpoint. As usually defined, the inhibition is how much of the control response was suppressed. Regarding `CC(C)Cc1cc(CNC(=O)N2CCN(CC(=O)Nc3ccccc3Cl)CC2)nn1-c1ccccc1.Cl`, 107 µM corresponded to half-maximal inhibition in experiment [1] (IC50). Also, the inhibition in experiment [2] came to 80%. The result in experiment [3] was inactive. In addition, the inhibition result in experiment [4] and in experiment [5] was “Active” in each case. In addition, the Activity result was “Dose-dependent effect” in experiment [6] and 50% in experiment [7].
